These results are taken from paper PMC9866191, “Novel 9-Benzylaminoacridine Derivatives as Dual Inhibitors of Phosphodiesterase 5 and Topoisomerase II for the Treatment of Colon Cancer” (Molecules, 2023).

Data set [1] has as its system panel of 60 human tumor cell lines. Briefly: NCI 60-cell line one-dose screen (mean). The class given is cell-based. The following applies: mean of the 60 cell lines, single dose 10^−5 M, read-out: Mean % Growth Inhibition. The procedure: The newly synthesized compounds were screened for their in vitro anticancer activity at the Developmental Therapeutic Program (DTP) of the National Cancer Institute (NCI). The screening involved a panel of 60 human tumor cell lines consisting of 9 tissue types to screen for potential anti-cancer agents. The primary screening of submitted compounds was performed by testing a single dose (10^−5 M) in the full NCI-60 panel. The detailed % inhibition by the tested compounds against the 60 cell lines is shown in Tables S1–S3 in the Supporting Information.

Data set [2] has as its system HCT-116 cells. Briefly: Cell cycle analysis (PI, flow cytometry). The class given is cell-based, human. The following applies: 10 µM, 24 h, PI staining. The method, then:
To analyze cell cycle changes, cells permeated at 1 × 10^6 × cells/mL were trypsinized and diluted and then fixed in 70% ethanol at 4 °C. Cell cycle arrest in HCT-116 cells following compound exposure was accomplished using propidium iodide (Sigma-Aldrich, St. Louis, MI, USA). The markers were then assessed using a FACS-Caliburflow cytometer (Beckman Coulter, Taipei, Taiwan) and analyzed using WinMDI software. […]
Figure 3 Apoptosis induction and cell cycle effects of compounds in HCT-116 cells. (A) The apoptotic population of HCT-116 cells was analyzed using flow cytometry after treatment with 10 µM of the test compound for 24 h followed by Annexin V/propidium iodide (PI) staining. (B) After treatment with compound concentrations of 10 µM for 24 h, cells were fixed, stained with propidium iodide (PI), and analyzed for cell cycle distribution. Results are expressed as the means ± SD from three independent experiments (* p < 0.05 and ** p < 0.01 *** p < 0.001, control versus compound).
For orientation: A flow cytometer gives signals particle by particle.

For data set [3], the system named is IGROV1. Briefly: NCI-60 one-dose screen. The class given is cell-based. As to conditions: Homo sapiens, IGROV-1; IGROV1, Ovarian Cancer panel; single dose 10^−5 M; read-out: Growth inhibition %.
The test system of data set [4] is CCRF-CEM. Briefly: NCI-60 one-dose screen. Format: cell-based. The following applies: Homo sapiens, Leukemia panel, single dose 10^−5 M, read-out: Growth inhibition %.
The target of data set [5] is T1, human DNA Topo II (Homo sapiens, UniProt P11388).
T1 construct: purchased Topogen, Columbus, OH, USA
T1 sequence (P11388 whole entry): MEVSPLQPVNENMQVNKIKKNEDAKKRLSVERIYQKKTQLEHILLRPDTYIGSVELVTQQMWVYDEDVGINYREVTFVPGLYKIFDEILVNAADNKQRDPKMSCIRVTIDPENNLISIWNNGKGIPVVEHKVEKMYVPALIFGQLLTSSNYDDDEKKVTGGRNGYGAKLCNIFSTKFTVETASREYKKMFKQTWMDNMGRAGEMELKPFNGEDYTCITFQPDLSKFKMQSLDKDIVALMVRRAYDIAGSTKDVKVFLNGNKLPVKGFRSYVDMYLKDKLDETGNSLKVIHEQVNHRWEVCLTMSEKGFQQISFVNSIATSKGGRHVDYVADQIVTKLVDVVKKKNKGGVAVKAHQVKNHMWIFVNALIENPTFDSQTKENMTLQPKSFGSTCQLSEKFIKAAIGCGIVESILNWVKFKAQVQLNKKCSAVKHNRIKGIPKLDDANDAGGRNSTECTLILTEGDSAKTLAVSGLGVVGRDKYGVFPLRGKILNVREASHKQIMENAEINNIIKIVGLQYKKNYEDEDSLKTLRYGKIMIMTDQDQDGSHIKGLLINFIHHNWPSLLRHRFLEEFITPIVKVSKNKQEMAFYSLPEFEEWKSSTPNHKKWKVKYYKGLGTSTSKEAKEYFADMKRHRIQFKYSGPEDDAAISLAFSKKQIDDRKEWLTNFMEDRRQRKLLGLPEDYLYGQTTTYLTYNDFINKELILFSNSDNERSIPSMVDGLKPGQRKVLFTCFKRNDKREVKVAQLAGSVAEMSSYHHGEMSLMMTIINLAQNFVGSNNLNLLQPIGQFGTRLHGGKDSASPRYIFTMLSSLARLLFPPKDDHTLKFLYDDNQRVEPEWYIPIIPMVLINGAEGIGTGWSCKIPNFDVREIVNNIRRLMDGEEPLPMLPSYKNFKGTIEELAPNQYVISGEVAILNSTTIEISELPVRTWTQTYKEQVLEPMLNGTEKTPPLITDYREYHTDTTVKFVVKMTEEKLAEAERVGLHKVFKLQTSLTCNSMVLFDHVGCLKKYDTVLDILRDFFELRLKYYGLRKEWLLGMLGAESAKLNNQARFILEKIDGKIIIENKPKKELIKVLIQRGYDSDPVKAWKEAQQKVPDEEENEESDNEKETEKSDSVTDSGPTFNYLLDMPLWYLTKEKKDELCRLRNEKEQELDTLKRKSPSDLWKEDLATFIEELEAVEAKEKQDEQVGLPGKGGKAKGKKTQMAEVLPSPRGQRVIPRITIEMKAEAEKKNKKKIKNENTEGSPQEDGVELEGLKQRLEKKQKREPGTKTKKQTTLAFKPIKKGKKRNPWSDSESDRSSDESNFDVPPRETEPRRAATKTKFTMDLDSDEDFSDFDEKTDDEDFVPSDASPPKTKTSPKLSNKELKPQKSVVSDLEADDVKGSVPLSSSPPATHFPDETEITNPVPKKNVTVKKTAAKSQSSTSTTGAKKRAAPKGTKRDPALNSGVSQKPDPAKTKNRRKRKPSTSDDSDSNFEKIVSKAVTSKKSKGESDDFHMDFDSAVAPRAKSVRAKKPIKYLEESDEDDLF
As to the kind of experiment: Topo II-mediated relaxation of supercoiled pHOT1 plasmid DNA. The class given is biochemical. The following applies: for DNA band pattern in Topo II relaxation assay: at 1 and 5 µM doses, similar to doxorubicin; for concentration at which Topo II inhibition (increase of supercoiled DNA) is shown: cell-free relaxation assay, gel. The method, then: Consequently, the effects of the synthesized compounds on Topo II activity were evaluated with a cell-free assay using a purified human DNA Topo II-protein-mediated relaxation of the negatively supercoiled pHOT1 plasmid DNA [40]. […] Two Topo II inhibitors (doxorubicin and etoposide) were used as positive controls.
The reaction was terminated by adding 2 μL of 10% SDS, followed by 2.5 μL of proteinase K (50 μg/mL) to digest the bound protein. The system was incubated at 37 °C for 15 min. The DNA product was finally analyzed using electrophoresis on a vertical 1.5% agarose gel at 2 volts/cm in 1 × TAE buffer and photographed using the Eagle Eye II system (Stratagene, La Jolla, CA, USA).
Figure 2 Effects of compounds on topoisomerase II activity. Effects on Topo II-mediated relaxation of supercoiled pHOT1 plasmid DNA in a cell-free system. Positive control: etoposide (10 µM); doxorubicin (5 µM) used as Topo II poison (induction of linear DNA); DNA relaxation: plasmid DNA + topo IIα + solvent control. Nick, nicked DNA; Sc, supercoiled DNA; Lin, linear DNA.

In general, inhibition refers to the change of the read-out against control, counted positive when it falls. Regarding `c1ccc(CNc2c3ccccc3nc3ccccc23)cc1` [Compound 1, Acridin-9-yl-benzyl-amine], the inhibition at 10 µM is 62.7% in data set [1], 70.2% in data set [3] and 61% in data set [4]. Further, the “effect on cell cycle” value in data set [2] was “arrested the cell cycle in the S phase”.

On to `Cc1ccccc1CNc1c2ccccc2nc2ccccc12` [Compound 2, Acridin-9-yl-(2-methylbenzyl)-amine], for which the inhibition at 10 µM in data set [1] came out at 77.7%; in data set [3] it was 85.2%; in data set [4] it was 82.4%. For the same compound, the “effect on cell cycle” value in data set [2] was “cell cycle arrest in the G2/M phase”.

For the compound `Cc1cccc(CNc2c3ccccc3nc3ccccc23)c1` [Compound 3, Acridin-9-yl-(3-methylbenzyl)-amine], the inhibition at 10 µM in data set [1] was 77.2%; in data set [3], 80.5%; in data set [4], 85.2%. Also, the “effect on cell cycle” value in data set [2] is given as “cell cycle arrest in the G2/M phase”.

Consider `Cc1ccc(CNc2c3ccccc3nc3ccccc23)cc1` [Compound 4, Acridin-9-yl-(4-methylbenzyl)-amine], for which the inhibition at 10 µM in data set [1] was determined as 74.8%; in data set [3], 80.6%; in data set [4], 79.1%. In addition, in data set [2], the “effect on cell cycle” value was “increased the number of cells in the S phase and G2/M phase”.

For `COc1ccccc1CNc1c2ccccc2nc2ccccc12` [Compound 5, Acridin-9-yl-(2-methoxybenzyl)-amine], the inhibition at 10 µM was 60.8% in data set [1], 73.7% in data set [3] and 62.5% in data set [4]. For the same compound, the “effect on cell cycle” value in data set [2] is given as “does not affect the cell cycle”.

As usually defined, the melting point is the temperature of the solid-liquid transition. As to `COc1cccc(CNc2c3ccccc3nc3ccccc23)c1` [Compound 6, Acridin-9-yl-(3-methoxybenzyl)-amine], the melting point lay within 107 to 109 °C. Also, the inhibition at 10 µM in data set [1] came to 63.1%. For the same compound, the inhibition at 10 µM in data set [3] was 71.7%. Further, the inhibition at 10 µM in data set [4] is 69.8%.

For the compound `COc1ccc(CNc2c3ccccc3nc3ccccc23)cc1` [Compound 7, Acridin-9-yl-(4-methoxybenzyl)-amine], the melting point lay within 116 to 118 °C. For the same compound, in data set [1], the inhibition at 10 µM was 63.2%. In addition, in data set [3], the inhibition at 10 µM was determined as 72.8%. In data set [4], the inhibition at 10 µM was 61%.

Take `Fc1ccccc1CNc1c2ccccc2nc2ccccc12` [Compound 8, Acridin-9-yl-(2-fluorobenzyl)-amine]: the inhibition at 10 µM turned out to be 56.5% in data set [1], 63.4% in data set [3] and 54% in data set [4]. The “effect on cell cycle” value in data set [2] was “cell cycle arrest in the G2/M phase”. In addition, the “DNA band pattern in Topo II relaxation assay” value (“DNA band pattern” for short) in data set [5] was “larger base pair band than nicked DNA”.

Turning to `Fc1cccc(CNc2c3ccccc3nc3ccccc23)c1` [Compound 9, Acridin-9-yl-(3-fluorobenzyl)-amine], the inhibition at 10 µM in data set [1] was 64.2%; in data set [3] it was 74.4%; in data set [4] it was 53.7%. In addition, the “effect on cell cycle” value in data set [2] was “cell cycle arrest in the G2/M phase”. Further, the “DNA band pattern” value in data set [5] is given as “larger base pair band than nicked DNA”.

Turning to `Fc1ccc(CNc2c3ccccc3nc3ccccc23)cc1` [Compound 10, Acridin-9-yl-(4-fluorobenzyl)-amine], the inhibition at 10 µM in data set [1] worked out at 72.3%; in data set [3] it was 78.1%; in data set [4], 74%. Moreover, the “effect on cell cycle” value in data set [2] is “increased the number of cells in the S phase and G2/M phase”.

`Clc1ccccc1CNc1c2ccccc2nc2ccccc12` [Compound 11, Acridin-9-yl-(2-chlorobenzyl)-amine]: the inhibition at 10 µM in data set [1] turned out to be 78.4%; in data set [3] it was 82.2%; in data set [4], 89.3%. Also, the “effect on cell cycle” value in data set [2] was “cell cycle arrest in the G2/M phase”. In addition, the “DNA band pattern” value in data set [5] is “larger base pair band than nicked DNA”. Further, the “concentration at which Topo II inhibition (increase of supercoiled DNA) is shown” value in data set [5] was 0.04 µM.

`Clc1cccc(CNc2c3ccccc3nc3ccccc23)c1` [Compound 12, Acridin-9-yl-(3-chlorobenzyl)-amine]: the values for the inhibition at 10 µM in data set [1], in data set [3] and in data set [4] were 73%, 83.5% and 81.9%, respectively. Besides, the “effect on cell cycle” value in data set [2] was “cell cycle arrest in the G2/M phase”. Further, the “concentration at which Topo II inhibition (increase of supercoiled DNA) is shown” value in data set [5] is recorded as 0.2 µM.

Regarding `Clc1ccc(CNc2c3ccccc3nc3ccccc23)cc1` [Compound 13, Acridin-9-yl-(4-chlorobenzyl)-amine], the melting point was in the range of 145 to 147 °C. Moreover, the inhibition at 10 µM in data set [1] was 59.4%. The “effect on cell cycle” value in data set [2] was “cell cycle arrest in the G2/M phase”. Further, in data set [3], the inhibition at 10 µM amounted to 68.3%. Further, the inhibition at 10 µM in data set [4] turned out to be 69.8%.

For `COc1cccc(CNc2c3ccccc3nc3ccccc23)c1OC` [Compound 16, Acridin-9-yl-(2,3-dimethoxybenzyl)-amine], the melting point lay within 175 to 177 °C. The inhibition at 10 µM in data set [1] turned out to be 63.9%. In addition, the inhibition at 10 µM in data set [3] was 76.8%. The inhibition at 10 µM in data set [4] worked out at 60.5%.

On to `COc1ccc(CNc2c3ccccc3nc3ccccc23)c(OC)c1` [Compound 17, Acridin-9-yl-(2,4-dimethoxybenzyl)-amine], for which the melting point was 170 to 172 °C. Besides, the inhibition at 10 µM in data set [1] came to 60.8%. Also, the inhibition at 10 µM in data set [3] is 77.5%. In addition, in data set [4], the inhibition at 10 µM amounted to 44.6%.

Turning to `COc1ccc(CNc2c3ccccc3nc3ccccc23)cc1F` [Compound 19, Acridin-9-yl-(3-fluoro-4-methoxybenzyl)-amine], the melting point fell in the range of 145 to 147 °C. Besides, the inhibition at 10 µM in data set [1] worked out at 76.2%. Moreover, in data set [3], the inhibition at 10 µM stood at 84.2%. Also, the inhibition at 10 µM in data set [4] turned out to be 70.4%.

Take `c1ccc(CCNc2c3ccccc3nc3ccccc23)cc1` [Compound 23, Acridin-9-yl-phenethyl-amine]: the melting point was in the range of 151 to 153 °C. For the same compound, in data set [1], the inhibition at 10 µM amounted to 60.7%. In addition, in data set [3], the inhibition at 10 µM came out at 72%. Also, in data set [4], the inhibition at 10 µM was 46.7%.

For `COc1ccc2nc3ccccc3c(NCc3ccc(C)cc3)c2c1` [Compound 26, (2-Methoxyacridin-9-yl)-(4-methylbenzyl)-amine], the melting point lay within 131 to 133 °C. Also, in data set [1], the inhibition at 10 µM is 79.9%. The inhibition at 10 µM in data set [3] amounted to 82.8%. For the same compound, the inhibition at 10 µM in data set [4] is 92.9%.

`COc1ccc(CNc2c3ccccc3nc3ccc(OC)cc23)cc1` [Compound 27, (2-Methoxyacridin-9-yl)-(4-methoxybenzyl)-amine] showed a melting point of 168 to 170 °C. Further, the inhibition at 10 µM in data set [1] was 87.9%. For the same compound, in data set [3], the inhibition at 10 µM came out at 88.8%. Besides, the inhibition at 10 µM in data set [4] is 80.6%.

On to `COc1ccc2nc3ccccc3c(NCc3ccc(Cl)cc3)c2c1` [Compound 29, (4-Chlorobenzyl)-(2-methoxyacridin-9-yl)-amine], for which the melting point lay in the range of 178 to 180 °C. In data set [1], the inhibition at 10 µM was determined as 93.3%. Also, the inhibition at 10 µM in data set [3] was found to be 83.7%. For the same compound, in data set [4], the inhibition at 10 µM is 91.6%.
